Where two headings read alike, the source gives them in different places.

The source of these data is patent US7879835B2 (Korea Research Institute of Chemical Technology, priority 2004, dated 2011).

Data set [1] deals with rats. The data set can be described thus: In vivo acute toxicity test (LD50). As to conditions: single dose, 2 weeks observation. The protocol: In order to determine the acute toxicities of the compounds prepared in Examples, 6-week old specific pathogen-free (SPF) rats each weighing […] were divided into groups of 10 rat each.
In case of subcutaneous administration, each of the compounds was dissolved in 5% PEG400 solution to a concentration of 20 mg/ml, the resulting solution was serially diluted with 5% PEG400 solution to concentrations of 5, 2.5, 1.25 and 0.625 mg/ml, and the dilutions were subcutaneously injected once to the rats at a dose of 10 ml/kg body weight.
In case of oral administration, each of the compounds was dissolved in soybean oil to a concentration of 180 mg/ml, the resulting solution was serially diluted with soybean oil to concentrations of 80, 20 and 5 mg/ml, and the dilutions were orally administered once to the rats at a dose of 20 ml/kg body weight. […]
During 2 weeks after the administration of the compounds, the death rate, clinical symptoms and weight changes of the rats were observed, and hematological and biochemical tests on blood samples were performed. Then, the rats were sacrificed and the internal organs were visually examined to check any abnormal signs in the organs of chest and abdomen.

Data set [2] concerns osteoclast (TRAP-positive multinuclear cell) formation. The data set can be described thus: Inhibitory effect on osteoclast formation (TRAP staining). Type of data set: cell-based, mice. As to conditions: compared to control; for inhibition at 0.3 µM / inhibition at 1 µM / inhibition at 3 µM / inhibition at 0.1 µM: Mus musculus, Osteoclast, read-out: Osteoclast formation inhibitory effects (%); for inhibition at 0.1 µM: 0.1 μM (Table 4b). Put shortly:
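Non-adherent bone marrow cells from 7–9-week-old female mice, 2×10^5 per well, cultured 8 days with M-CSF (20 ng/ml), RANKL (30 ng/ml) and compound at 0.3, 1.0 or 3 μM. Formation scored by TRAP staining after fixation, 1 h at 37 °C, pH 5.0.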

Data set [3] has as its system MG-63 cells. The data set can be described thus: Cytotoxicity test against osteoblast (MTT). It counts as cell-based, human. As to the method: In order examine the toxicities of the compounds of the Examples against osteoclast pregenitors, pregenitor cells were aliquotted onto a 96-well microplate at a density of 2×10^5 cells per well, treated with 2, 4 and 8 μM of the test compounds, respectively, and cultured for 48 hrs in α-MEM supplemented with 20 ng/ml of M-CSF (Peprotech, USA) using 37° C. incubator (5% CO2). At 3 hrs before the culture was finished, 50 μl of MTT (3-(4,5-dimethylthiazol-2-yl)-2,5-diphenyltetrazolium bromide) solution (50 μg/ml) was added to each well. Upon completion of the cell culture, the supernatant was removed, and the precipitated dye was reacted with 100 μl of isopropanol/0.04 N HCl at room temperature for 30 min to dissolve it. The absorbances of the wells were measured at 550 nm, and the relative absorbance of each well relative to that of the control (set as 100) is shown in Table 6.
In order to examine the toxicity of the compounds of the Examples against osteoblasts, human osteosarcoma-derived cell line, MG-63 (ATCC No. CRL-1427) cells were treated with 0.1, 0.3, 1.0 and 3.0 μM of the compounds of the Examples, and cultured in DMEM supplemented with 10% FBS (fetal bovine serum).

A short description of data set [4]: In vitro pharmacokinetics: metabolic stability in liver microsome. The note with it: human liver microsome 1 mg/ml, 20 μM compound; for half-life at 20 µM: liver microsomes. It counts as in vitro ADME. As to the method:
Metabolic stabilities of the compounds of the Examples were examined by employing microsome samples prepared from the human liver.
Each 20 μM of the compounds were reacted with 1 mg/ml of liver microsome and the half-lives and one-hour stabilities of the compounds were determined.

In data set [5] the test system is osteoclasts. The data set can be described thus: Inhibitory effect on resorption activity of osteoclast (resorption pit area on calcium phosphate-coated plate). It counts as cell-based, mice. As to conditions: compared to control. The protocol:
After finishing culture, the plate was washed with distilled water, and 50 μl/well of 5% sodium hypochlorite was added to the plate. The plate was let alone for 5 min, washed again with distilled water to remove the adherent cells, and dried at room temperature. Then, the area of formed resorption pits was calculated by means of Image Pro Plus software (Media Cybernetics Ver. 3.0).

Data set [6] is described as follows: In vivo pharmacokinetics using female mice (serum concentration, HPLC). As to conditions: I.V.; for clearance / Half-life / Vd: mouse, serum, iv; for clearance: read-out: CL (clearance) (converted); for Half-life: read-out: Half-life (converted); for Vd: read-out: Vd (volume of distribution). As to the method:
Female mice each weighing […] were divided into groups of 5 mice each. The mice were anesthetized with ether, catheterized in their femoral artery and vein, respectively, and administered with 0.5 mg/kg body weight of compounds 234 and 274, and 5 mg/kg body weight of compounds 388, 404 and 415, respectively, via intravenous injection. Alternatively, 15 mg/kg body weight of compound 274 and 10 mg/kg body weight of compound 234 were orally administered to the mice.
At 0, 5, 10, 15 and 30 minutes and 1, 2, 4, 6, 9 and 12 hours after the intravenous injection, or at 0, 10, 20 and 40 minutes and 1, 2, 4, 6, 9 and 12 hours after the oral administration, 0.3 ml blood samples were taken from the mice through femoral artery. The blood samples were kept on an ice bath for 30 minutes and centrifuged at 3,000 rpm for 10 minutes to obtain a supernatant (serum). The supernatant samples were stored at −20° C.
Standard solution: Compounds 234, 274, 388, 404 and 415 were respectively dissolved in methanol to a concentration of 1 mg/ml to obtain stock solutions. The stock solutions were diluted with methanol to obtain standard solutions having concentrations of 40, 20, 10, 2, 1, 0.5, 0.2, 0.05 and 0.02 μg/ml, respectively.
Standard calibration curve: A stand calibration curve was prepared by employing calibration concentrations of 0.002, 0.005, 0.02, 0.05, 0.1, 0.2, 1, 2 and 4 μg/ml.
10 μl each of the standard solutions prepared above was added to 100 μl of normal serum sample and diluted 10 times. 250 μl of acetonitrile was added to the resulting dilution and the mixture was centrifuged for 10 minutes to obtain a supernatant. 300 μl of the supernatant was dried by evaporation under a nitrogen atmosphere and reconstituted by adding 50 μl of methanol. 20 μl of the resulting solution was analyzed by HPLC to prepare a standard calibration curve. HPLC was performed with Shimadzu ODS2 column (4.6×250 mm, 5 μm by employing a mixture of methanol/water (90/10 (v/v)) as the mobile phase at a flow rate of 1.2 ml/min, and measuring the absorbance at 240 nm.
Extraction: 100 μl of the serum sample obtained in (4-2-1) was put into a 1 ml microtube and 10 μl of methanol was added thereto. 250 μl of acetonitrile was added to the microtube and the mixture was centrifuged for 10 minutes to obtain a supernatant. 300 μl of the supernatant was dried by evaporation under a nitrogen atmosphere and reconstituted by adding 50 μl of methanol. 20 μl of the resulting solution was analyzed by the HPLC method as above.
Average concentrations of the compounds in the serum samples were plotted in a semi-log scale against the time lapsed after the administration, and the pharmacokinetic parameters were determined as a non-compartment open model by employing WinNonlin® program (Pharsight Corporation).

Consider `C=CCOc1ccc(OCc2cc(Cl)ccc2/C(=C\OC)C(=O)OC)cc1` [compound 264], for which the LD50 in data set [1] (PO) is reported as 269 mg/kg body weight; in data set [1] (SC), 25 mg/kg body weight. In addition, the “Osteoclast formation inhibitory effects (%)” value in data set [2] (0.3 μM, 8 days culture with M-CSF and RANKL) was found to be 98%; in data set [2] (1.0 μM, 8 days culture with M-CSF and RANKL), 100%; in data set [2] (3.0 μM, 8 days culture with M-CSF and RANKL), 100%. The “relative absorbance relative to that of the control (set as 100), MTT” value in data set [3] (0.11 uM) is listed as 103; in data set [3] (0.33 uM), 107; in data set [3] (1 uM) it was 104; in data set [3] (3 uM), 92. The Half-life in data set [4] was over 180 min. The One-hour stability in data set [4] came out at 80%. Besides, the “Reduction (%) of the resorption pit area of osteoclasts” value in data set [5] (0.3 uM), in data set [5] (1 uM) and in data set [5] (3 uM) was 100% throughout.
In the case of `CO/C=C(/C(=O)OC)c1ccccc1COc1cccc(CN2CCOCC2)c1` [Compound No. 404, (E)-methyl-2-[2-((3-(morpholinomethyl)phenoxy)-methyl)phenyl]-3-methoxyacrylate], in data set [6], the “AUC (area under the curve of blood concentration versus time)” value amounted to 97.2 ± 14.8 µg·h/mL, the clearance was 0.0567 mL/min, the Half-life is 612 ± 114 min and the Vd came out at 0.0462 ± 0.0064 L/kg. In addition, the inhibition at 0.3 µM in data set [2] (0.3 μM (Table 4b)) stood at 9%. Moreover, in data set [2] (1 μM (Table 4b)), the inhibition at 1 µM amounted to 63%. In data set [2] (3 μM (Table 4b)), the inhibition at 3 µM turned out to be 100%. The “relative absorbance (MTT) relative to control (set as 100)” value in data set [3] (0.33 μM compound) came out at 83. Besides, the “relative absorbance (MTT) relative to control (set as 100)” value in data set [3] (1 μM compound) worked out at 92. Further, the “relative absorbance (MTT) relative to control (set as 100)” value in data set [3] (3 μM compound) turned out to be 94. Besides, the half-life at 20 µM in data set [4] was determined as 57.4 ± 2.3 min.
Regarding `CO/C=C(/C(=O)OC)c1ccc(Cl)cc1COc1ccc(OCC2CC2)cc1`, the LD50 in data set [1] (PO) is 100-300 mg/kg body weight; in data set [1] (SC), 5 mg/kg body weight. Also, the inhibition at 0.3 µM in data set [2] (192 h, 0.3 μM, 8 days culture with M-CSF and RANKL) was found to be 98%. Also, the inhibition at 1 µM in data set [2] (192 h, 1.0 μM, 8 days culture with M-CSF and RANKL) amounted to 100%. Besides, in data set [2] (192 h, 3.0 μM, 8 days culture with M-CSF and RANKL), the inhibition at 3 µM amounted to 100%. In data set [4], the One-hour stability was determined as 70%. Further, the half-life at 20 µM in data set [4] is over 180 min. Besides, the “Reduction (%) of the resorption pit area of osteoclasts” value in data set [5] (0.3 uM), in data set [5] (1 uM) and in data set [5] (3 uM) was 100% each time.
On to `CO/C=C(/C(=O)OC)c1ccccc1COc1cccc(C(C)F)c1` (stereo not drawn) [compound 169], for which the LD50 in data set [1] (PO) is listed as over 1000 mg/kg body weight; in data set [1] (SC), 10 mg/kg body weight.
With `CO/C=C(/C(=O)OC)c1ccccc1COc1cccc(N2CCCC2)n1` [Compound No. 415, (E)-methyl-2-[2-((6-(pyrrolidin-1-yl)pyridin-2-yloxy)-methyl)phenyl]-3-methoxyacrylate], in data set [6], the “AUC (area under the curve of blood concentration versus time)” value came to 176.4 ± 32.9 µg·h/mL, the clearance was 0.0317 mL/min, the Half-life is 647 ± 96.6 min and the Vd amounted to 0.027 ± 0.0012 L/kg. In data set [2], the inhibition at 0.1 µM is 5%. Also, the inhibition at 0.3 µM in data set [2] (0.3 μM (Table 4b)) turned out to be 57%. Further, the inhibition at 1 µM in data set [2] (1 μM (Table 4b)) was 100%. Further, the inhibition at 3 µM in data set [2] (3 μM (Table 4b)) worked out at 100%. The same compound had a half-life at 20 µM in data set [4] of 24.9 min.
On to `CO/C=C(/C(=O)OC)c1ccc(Cl)cc1COc1cccc(N2CCOCC2)c1` [Compound No. 386, (E)-methyl-2-[2-((3-morpholinophenoxy)methyl)-4-chlorophenyl]-3-methoxyacrylate], for which the inhibition at 0.1 µM in data set [2] was found to be 100%. The inhibition at 0.3 µM in data set [2] (0.3 μM (Table 4b)) turned out to be 100%. In addition, the inhibition at 1 µM in data set [2] (1 μM (Table 4b)) is 100%. Moreover, the inhibition at 3 µM in data set [2] (3 μM (Table 4b)) is 100%. For the same compound, the “relative absorbance (MTT) relative to control (set as 100)” value in data set [3] (0.33 μM compound) amounted to 101; in data set [3] (1 μM compound), 69; in data set [3] (3 μM compound) it was 68. In data set [4], this compound came in with a half-life at 20 µM of 40.7 min.

By clearance is commonly meant the rate of elimination divided by the concentration. The term Vd denotes the apparent volume that relates the amount in the body to the concentration in plasma or blood. In general, half-life refers to the time needed for the level to fall by half in the phase considered. High values mean slow decline, low ones rapid decline.
